Among the test systems are 786-0 renal; CCRF-CEM leukemia; HCT-116 colon; HCT-15 colon; HL-60(TB) leukemia; K-562 leukemia; NCI/ADR-RES ovarian; TK-10 renal; U251 CNS; MALME-3M melanoma.
What all share (experiment): NCI anticancer screen, dose series, 48 h

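Tested at 5 concentrations; 48 h exposure; 96-well plates; endpoints linearly interpolated, else capped at highest concentration. The concentration for 50% growth inhibition is given as GI50. TGI marks complete inhibition of growth.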

Turning to `CN1C(=O)c2c(ccc3c2OCO3)C2C(O)Cc3cc4c(cc3C21)OCO4` (configuration not stated), the TGI is 37.3 µM in the test with 786-0 renal; 9.74 µM in the test on CCRF-CEM leukemia; above 100 µM in the test with HCT-116 colon; 24.7 µM with HCT-15 colon; 6.3 µM with HL-60(TB) leukemia; 60.2 µM in the test with K-562 leukemia. Moreover, the TGI with NCI/ADR-RES ovarian is 8.28 µM; with TK-10 renal, above 100 µM; in the test on U251 CNS, above 100 µM.
Regarding `O=P([O-])(O)OP(=O)([O-])O.[NH-][C@H]1CCCC[C@@H]1[NH-].[OH-].[OH-].[Pt+4]`, the GI50 was 29.5 µM with 786-0 renal; above 100 µM with CCRF-CEM leukemia; 37.1 µM in the test with HCT-116 colon; 39.9 µM in the test with HCT-15 colon; 92.9 µM with K-562 leukemia; 14.3 µM with MALME-3M melanoma. For the same compound, the GI50 with NCI/ADR-RES ovarian is 22.7 µM; with U251 CNS it was 17.2 µM. The TGI in the test on 786-0 renal is 76.2 µM; with CCRF-CEM leukemia it was above 100 µM; in the test with HCT-116 colon, above 100 µM; in the test with HCT-15 colon, above 100 µM; in the test on K-562 leukemia it was above 100 µM; in the test on MALME-3M melanoma, 38.2 µM. The TGI in the test with NCI/ADR-RES ovarian was found to be 78.1 µM; with U251 CNS, 33.8 µM.
Consider `COc1cc(/C(Cl)=C/C=C/C(=O)c2c(C)[n+]([O-])c3ccc(Cl)cc3[n+]2[O-])cc(OC)c1OC`, for which the GI50 is 4.62 µM in the test with 786-0 renal; 1.62 µM in the test on CCRF-CEM leukemia; 2.12 µM with HCT-116 colon; 7.35 µM in the test on HCT-15 colon; 1.43 µM with K-562 leukemia; 6.35 µM with MALME-3M melanoma. Moreover, the GI50 was 1.97 µM in the test on NCI/ADR-RES ovarian and 2.57 µM in the test on U251 CNS. Also, the TGI in the test with 786-0 renal was above 50 µM; in the test with CCRF-CEM leukemia it was above 50 µM; in the test on HCT-116 colon, 8.98 µM; in the test with HCT-15 colon, above 50 µM; in the test on K-562 leukemia, 6.24 µM; in the test on MALME-3M melanoma, 18.5 µM. For the same compound, the results for the TGI with NCI/ADR-RES ovarian and in the test on U251 CNS were above 50 µM and 10.5 µM, respectively.
`COC(=O)[C@@H](NC(=O)NC(=O)NC(=O)CI)C(C)C`: the GI50 is 11.4 µM in the test with 786-0 renal; 12.2 µM in the test on HCT-116 colon; 1.66 µM in the test with HCT-15 colon; 1.7 µM with HL-60(TB) leukemia; 1.63 µM with MALME-3M melanoma; 25.4 µM in the test on NCI/ADR-RES ovarian. For the same compound, the figures for the GI50 in the test on TK-10 renal and in the test with U251 CNS were 7.65 µM and 17.3 µM, respectively. Further, the TGI in the test with 786-0 renal stood at 23.5 µM; with HCT-116 colon it was 24.6 µM; in the test with HCT-15 colon, 3.16 µM; in the test on HL-60(TB) leukemia, 3.86 µM; in the test on MALME-3M melanoma, 3.64 µM; in the test on NCI/ADR-RES ovarian it was 73 µM. Moreover, the TGI in the test on TK-10 renal came to 20.5 µM; in the test on U251 CNS, 31.1 µM.
Turning to `COc1cccc([C@H]2CC(=O)c3cc4c(cc3N2)OCO4)c1`, the GI50 in the test on 786-0 renal was 0.0789 µM; in the test with CCRF-CEM leukemia, 0.0586 µM; with HCT-116 colon it was 0.0604 µM; in the test with HCT-15 colon it was 0.0434 µM; with NCI/ADR-RES ovarian, 0.036 µM; with U251 CNS, 0.0491 µM. Further, the TGI in the test with 786-0 renal, with CCRF-CEM leukemia, in the test on HCT-116 colon, in the test with HCT-15 colon, in the test with TK-10 renal and in the test with U251 CNS was above 100 µM each time.
As to `NS(=O)(=O)c1ccc(NC(=O)c2ccc(NC3=C(Cl)C(=O)N(Cc4ccccc4)C3=O)cc2)cc1`, the GI50 is 3.38 µM with 786-0 renal; 2.68 µM with HCT-116 colon; 13.7 µM with HCT-15 colon; 3.26 µM in the test with K-562 leukemia; 49.4 µM in the test on MALME-3M melanoma; 19.6 µM in the test with NCI/ADR-RES ovarian. In addition, the GI50 with TK-10 renal is above 100 µM; in the test with U251 CNS, 5.37 µM. The TGI in the test on 786-0 renal was 12.5 µM; in the test on HCT-116 colon it was 10.3 µM; in the test on HCT-15 colon, 69.4 µM; with K-562 leukemia, above 100 µM; with MALME-3M melanoma, above 100 µM; in the test with NCI/ADR-RES ovarian it was 43.3 µM. For the same compound, the figures for the TGI in the test with TK-10 renal and in the test with U251 CNS were above 100 µM and 24.7 µM, respectively.
Regarding `CC(C)(C)OC(=O)NCCNC1=CC(=O)c2nc3ccccc3c3ccnc1c23`, the GI50 was 28.5 µM with 786-0 renal; 22.3 µM in the test with HCT-116 colon; 19.3 µM with HCT-15 colon; 12.2 µM in the test on HL-60(TB) leukemia; 0.131 µM with K-562 leukemia; 32 µM in the test with MALME-3M melanoma. Further, the figures for the GI50 in the test with NCI/ADR-RES ovarian, in the test on TK-10 renal and in the test with U251 CNS were 23.3 µM, 32.4 µM and 18.8 µM, respectively. Moreover, the TGI with 786-0 renal is above 100 µM; with HCT-116 colon it was above 100 µM; in the test with HCT-15 colon, 47.9 µM; in the test on HL-60(TB) leukemia it was above 100 µM; in the test on K-562 leukemia it was above 100 µM; in the test on MALME-3M melanoma it was 81.8 µM. The TGI stood at 74.5 µM with NCI/ADR-RES ovarian, 99.7 µM with TK-10 renal and 65 µM in the test with U251 CNS.
`COc1cc2c(/C=N\N=C(N)N)c(Cl)[nH]c2cc1C`: the GI50 in the test on 786-0 renal is 14.4 µM; with CCRF-CEM leukemia, 3.89 µM; in the test with HCT-116 colon, 10.2 µM; in the test on HCT-15 colon, 18 µM; with K-562 leukemia, 4.36 µM; in the test with NCI/ADR-RES ovarian, 23.3 µM. For the same compound, the GI50 with TK-10 renal is 15.7 µM; in the test on U251 CNS, 4.62 µM. Moreover, the TGI with 786-0 renal stood at 28.3 µM; in the test on CCRF-CEM leukemia it was 17.5 µM; in the test with HCT-116 colon it was 21.9 µM; in the test with HCT-15 colon it was 34.1 µM; with K-562 leukemia, 19.7 µM; with NCI/ADR-RES ovarian, 50.5 µM. For the same compound, the TGI in the test with TK-10 renal was 29.5 µM; in the test on U251 CNS, 17.7 µM.
With `O=C(c1ccc2ccccc2c1O)N1CCCCC1`, the TGI was above 100 µM in the test on 786-0 renal; above 100 µM with CCRF-CEM leukemia; above 100 µM with HCT-116 colon; above 100 µM in the test with HCT-15 colon; above 100 µM in the test on HL-60(TB) leukemia; 75.3 µM in the test with K-562 leukemia. Besides, the TGI in the test with NCI/ADR-RES ovarian, in the test with TK-10 renal and in the test on U251 CNS was above 100 µM in each case.
Regarding `O=C(CC1=Nc2nnc(-c3nnc4n3C(=O)C(CC(=O)c3cccnc3)=N4)n2C1=O)c1cccnc1`, the TGI in the test on 786-0 renal, in the test with CCRF-CEM leukemia, with HCT-116 colon, with HCT-15 colon, in the test with HL-60(TB) leukemia and in the test on K-562 leukemia was above 100 µM throughout. The TGI in the test with MALME-3M melanoma, in the test with TK-10 renal and in the test with U251 CNS was above 100 µM in each case.

The values are drawn from PubChem BioAssay (NCI).
